{
  "source": "ChEMBL document CHEMBL1201862",
  "about": "“PubChem BioAssay data set” (2004)",
  "key": {"[1]": {"target": "Signal transducer and activator of transcription 1-alpha/beta (Homo sapiens, UniProt P42224)", "sequence (P42224 whole entry)": "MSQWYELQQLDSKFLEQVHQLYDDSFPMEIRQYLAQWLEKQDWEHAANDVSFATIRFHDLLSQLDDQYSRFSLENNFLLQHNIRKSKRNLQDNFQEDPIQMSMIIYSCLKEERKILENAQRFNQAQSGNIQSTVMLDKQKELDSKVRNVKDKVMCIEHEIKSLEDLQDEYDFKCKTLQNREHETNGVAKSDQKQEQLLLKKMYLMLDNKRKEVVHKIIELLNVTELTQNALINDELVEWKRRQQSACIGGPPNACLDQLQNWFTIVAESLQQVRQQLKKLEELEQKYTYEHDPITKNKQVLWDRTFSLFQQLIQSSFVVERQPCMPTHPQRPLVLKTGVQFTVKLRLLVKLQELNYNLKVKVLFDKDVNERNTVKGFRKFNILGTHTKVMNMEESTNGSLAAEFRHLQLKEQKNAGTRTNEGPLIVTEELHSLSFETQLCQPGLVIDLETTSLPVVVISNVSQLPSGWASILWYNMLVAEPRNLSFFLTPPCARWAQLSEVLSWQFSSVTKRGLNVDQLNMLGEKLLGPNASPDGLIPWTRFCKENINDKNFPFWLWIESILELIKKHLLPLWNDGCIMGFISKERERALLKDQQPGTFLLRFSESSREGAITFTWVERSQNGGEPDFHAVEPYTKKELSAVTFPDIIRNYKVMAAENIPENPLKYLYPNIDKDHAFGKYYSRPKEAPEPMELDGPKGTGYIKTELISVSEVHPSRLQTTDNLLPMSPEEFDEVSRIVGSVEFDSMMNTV", "experiment": "STAT1 signalling inhibitors, dose response, cell-based, NIH 3T3, luciferase reporter (AID 1396)", "format": "functional"}, "Jurkat": {"tested_on": "Jurkat", "experiment": "antigen receptor-induced NF-kB inhibitors, dose response, Jurkat, luciferase reporter, luminescence, B- and T-cell (AID 489004);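 note: NF-kB luciferase reporter Jurkat cells stimulated with PMA plus ionomycin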", "format": "functional, cell-based", "details": "Homo sapiens"}, "[2]": {"experiment": "Vero cell cytotoxicity, dose response, cytotoxicity control for Vif-APOBEC3G degradation inhibitor project, Vero cells (AID 1117358)", "format": "functional", "details": "Human immunodeficiency virus 1, Vero"}, "[3]": {"target": "Sphingosine 1-phosphate receptor 2 (Homo sapiens, UniProt O95136)", "sequence (O95136 whole entry)": "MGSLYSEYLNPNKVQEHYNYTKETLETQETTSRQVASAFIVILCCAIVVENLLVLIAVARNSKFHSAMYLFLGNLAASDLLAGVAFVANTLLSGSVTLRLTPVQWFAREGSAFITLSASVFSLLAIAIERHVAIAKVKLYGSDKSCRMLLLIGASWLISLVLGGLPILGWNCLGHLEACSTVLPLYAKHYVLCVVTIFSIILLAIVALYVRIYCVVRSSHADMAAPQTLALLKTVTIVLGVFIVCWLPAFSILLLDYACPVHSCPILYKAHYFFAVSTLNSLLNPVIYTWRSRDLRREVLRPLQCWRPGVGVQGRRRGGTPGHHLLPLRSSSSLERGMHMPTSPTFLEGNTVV", "experiment": "Dose Response Cell Based Assay for Antagonists of the S1P2 Receptor. [Related pubchem assays: 856, 736 ]", "format": "functional"}, "INS1": {"tested_on": "INS1", "experiment": "beta cell apoptosis inhibitors, cytokine rescue, dose response, luminescence, retest (AID 449756);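 note: cell death triggered by IL-1 beta plus TNF-alpha plus IFN-gamma mixture; protective hits raise ATP signal compared with cytokine alone wells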", "format": "functional, cell-based", "details": "Rattus norvegicus"}, "[4]": {"experiment": "C. albicans growth with fluconazole, confirmation, fluorescence, retest (AID 2467)", "format": "functional, cell-based"}, "Protein skinhead-1": {"target": "T1, Protein skinhead-1 (Caenorhabditis elegans, UniProt P34707)", "T1 sequence (P34707 whole entry)": "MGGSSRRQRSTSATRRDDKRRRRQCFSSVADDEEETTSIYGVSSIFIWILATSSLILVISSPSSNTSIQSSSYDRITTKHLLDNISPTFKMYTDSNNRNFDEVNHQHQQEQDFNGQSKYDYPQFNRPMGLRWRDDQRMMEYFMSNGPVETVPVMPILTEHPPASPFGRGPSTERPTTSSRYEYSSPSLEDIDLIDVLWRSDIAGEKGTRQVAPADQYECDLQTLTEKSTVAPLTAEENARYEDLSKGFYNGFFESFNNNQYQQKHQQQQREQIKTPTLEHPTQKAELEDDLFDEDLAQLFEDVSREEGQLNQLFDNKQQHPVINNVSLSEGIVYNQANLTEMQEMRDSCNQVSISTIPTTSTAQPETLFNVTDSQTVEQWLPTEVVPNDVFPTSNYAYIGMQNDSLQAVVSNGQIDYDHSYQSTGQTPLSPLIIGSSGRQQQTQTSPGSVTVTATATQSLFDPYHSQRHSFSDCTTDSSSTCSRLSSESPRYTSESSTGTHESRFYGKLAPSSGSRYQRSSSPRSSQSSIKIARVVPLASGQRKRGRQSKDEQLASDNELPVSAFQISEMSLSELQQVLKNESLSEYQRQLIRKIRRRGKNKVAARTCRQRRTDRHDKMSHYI", "format": "functional"}, "[5]": {"experiment": "cytotoxicity in HEK-293T NF-kB-Luc cells, dose response, cytotoxicity control for B/T-cell NF-kB inhibitor project, cell-based, uHTS hits (AID 489019);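 note: IC50 reflects cytotoxicity as loss of cell viability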", "format": "functional"}, "[6]": {"experiment": "NIH-3T3 fibroblast cytotoxicity, dose response, cytotoxicity control, cell-based, fluorescence, Alamar Blue, secondary assay (AID 2327);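 note: NIH-3T3 mouse fibroblasts cultured with fluconazole at 8 µg/mL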", "format": "functional"}, "[7]": {"experiment": "M. tuberculosis growth inhibition, HTS (AID 449762)", "format": "functional"}, "[8]": {"target": "Complement C1s subcomponent (Homo sapiens, UniProt P09871)", "sequence (P09871 16-437 limits assumed)": "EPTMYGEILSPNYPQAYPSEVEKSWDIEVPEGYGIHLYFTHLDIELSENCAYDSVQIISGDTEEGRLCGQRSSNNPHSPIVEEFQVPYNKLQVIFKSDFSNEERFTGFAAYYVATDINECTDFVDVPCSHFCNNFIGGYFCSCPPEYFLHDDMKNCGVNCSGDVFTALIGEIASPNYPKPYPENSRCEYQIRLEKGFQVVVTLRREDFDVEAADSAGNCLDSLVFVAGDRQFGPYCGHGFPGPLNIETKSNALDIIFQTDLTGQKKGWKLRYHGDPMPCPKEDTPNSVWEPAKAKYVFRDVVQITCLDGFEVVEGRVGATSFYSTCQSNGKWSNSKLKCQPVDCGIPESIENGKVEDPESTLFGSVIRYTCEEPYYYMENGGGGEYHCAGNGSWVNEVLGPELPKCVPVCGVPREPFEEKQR", "sequence (P09871 438-688 limits assumed)": "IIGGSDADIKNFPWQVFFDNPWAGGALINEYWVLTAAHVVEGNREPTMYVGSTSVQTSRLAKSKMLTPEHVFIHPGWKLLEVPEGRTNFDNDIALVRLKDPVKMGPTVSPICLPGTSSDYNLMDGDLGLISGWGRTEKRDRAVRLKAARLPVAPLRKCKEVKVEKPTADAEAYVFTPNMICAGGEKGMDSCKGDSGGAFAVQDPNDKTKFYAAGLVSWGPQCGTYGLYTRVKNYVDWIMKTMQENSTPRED", "experiment": "Complement C1s ELISA. [Related pubchem assays: 538, 787 ]", "format": "functional"}, "[9]": {"target": "Induced myeloid leukemia cell differentiation protein Mcl-1 (Homo sapiens, UniProt Q07820)", "format": "functional"}, "Aminopeptidase N": {"target": "T2, Aminopeptidase N (Plasmodium falciparum FcB1/Columbia, UniProt O96935)", "T2 sequence (O96935 whole entry)": "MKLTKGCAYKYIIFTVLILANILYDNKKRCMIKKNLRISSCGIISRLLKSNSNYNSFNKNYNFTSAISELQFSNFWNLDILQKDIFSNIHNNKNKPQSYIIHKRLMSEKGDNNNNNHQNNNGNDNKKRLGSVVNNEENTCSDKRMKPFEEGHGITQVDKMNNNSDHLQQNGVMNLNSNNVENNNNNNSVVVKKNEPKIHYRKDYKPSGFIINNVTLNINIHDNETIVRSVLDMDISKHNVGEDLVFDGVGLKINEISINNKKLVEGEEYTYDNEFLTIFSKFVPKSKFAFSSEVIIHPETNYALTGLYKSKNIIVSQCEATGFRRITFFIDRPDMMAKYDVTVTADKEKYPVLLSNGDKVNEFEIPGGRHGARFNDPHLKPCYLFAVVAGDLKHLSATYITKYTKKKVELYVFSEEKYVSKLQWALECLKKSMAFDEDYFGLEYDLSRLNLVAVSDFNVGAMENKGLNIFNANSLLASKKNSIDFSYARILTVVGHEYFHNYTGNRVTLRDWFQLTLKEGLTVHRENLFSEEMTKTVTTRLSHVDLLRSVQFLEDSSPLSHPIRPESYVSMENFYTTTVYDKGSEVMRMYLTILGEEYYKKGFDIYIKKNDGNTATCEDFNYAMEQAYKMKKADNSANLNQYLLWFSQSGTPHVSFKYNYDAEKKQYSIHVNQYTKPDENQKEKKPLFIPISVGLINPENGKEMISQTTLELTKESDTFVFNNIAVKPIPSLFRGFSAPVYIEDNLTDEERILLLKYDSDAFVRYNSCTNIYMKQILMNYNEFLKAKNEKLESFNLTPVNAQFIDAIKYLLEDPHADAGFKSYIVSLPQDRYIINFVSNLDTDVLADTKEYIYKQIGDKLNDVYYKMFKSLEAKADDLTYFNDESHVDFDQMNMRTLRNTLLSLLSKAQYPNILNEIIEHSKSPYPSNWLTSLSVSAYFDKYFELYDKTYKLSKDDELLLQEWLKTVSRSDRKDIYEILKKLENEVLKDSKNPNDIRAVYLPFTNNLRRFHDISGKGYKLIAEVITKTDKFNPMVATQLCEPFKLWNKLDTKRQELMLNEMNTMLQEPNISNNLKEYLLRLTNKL", "experiment": "P. falciparum M1AAP inhibitors, biochemical, fluorogenic H-Leu-NHMec substrate, 1536-well (AID 1445)", "parameters": "species or system Plasmodium falciparum 3D7, 3D7"}, "[10]": {"target": "26S proteasome non-ATPase regulatory subunit 14 (Homo sapiens, UniProt O00487)", "sequence (O00487 whole entry)": "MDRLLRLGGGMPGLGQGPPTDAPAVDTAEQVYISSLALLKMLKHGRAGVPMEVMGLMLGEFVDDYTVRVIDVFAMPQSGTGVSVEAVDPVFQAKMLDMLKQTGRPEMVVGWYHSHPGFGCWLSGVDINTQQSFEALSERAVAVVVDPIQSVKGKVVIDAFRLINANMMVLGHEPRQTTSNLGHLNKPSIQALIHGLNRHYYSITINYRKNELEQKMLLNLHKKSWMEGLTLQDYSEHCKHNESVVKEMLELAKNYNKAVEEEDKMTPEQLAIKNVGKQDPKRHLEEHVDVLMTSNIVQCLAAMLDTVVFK", "experiment": "inhibition of proteasome subunit RPN11 – biochemical, fluorescence polarization, uHTS hits, confirmation (AID 602368)", "format": "functional"}, "Prothrombin": {"target": "Prothrombin (Bos taurus, UniProt P00735)", "experiment": "thrombin inhibition, dose response, biochemical, fluorescence polarization, uHTS hits (AID 602369)", "format": "functional"}, "[11]": {"target": "72 kDa type IV collagenase (Homo sapiens, UniProt P08253)", "sequence (P08253 whole entry)": "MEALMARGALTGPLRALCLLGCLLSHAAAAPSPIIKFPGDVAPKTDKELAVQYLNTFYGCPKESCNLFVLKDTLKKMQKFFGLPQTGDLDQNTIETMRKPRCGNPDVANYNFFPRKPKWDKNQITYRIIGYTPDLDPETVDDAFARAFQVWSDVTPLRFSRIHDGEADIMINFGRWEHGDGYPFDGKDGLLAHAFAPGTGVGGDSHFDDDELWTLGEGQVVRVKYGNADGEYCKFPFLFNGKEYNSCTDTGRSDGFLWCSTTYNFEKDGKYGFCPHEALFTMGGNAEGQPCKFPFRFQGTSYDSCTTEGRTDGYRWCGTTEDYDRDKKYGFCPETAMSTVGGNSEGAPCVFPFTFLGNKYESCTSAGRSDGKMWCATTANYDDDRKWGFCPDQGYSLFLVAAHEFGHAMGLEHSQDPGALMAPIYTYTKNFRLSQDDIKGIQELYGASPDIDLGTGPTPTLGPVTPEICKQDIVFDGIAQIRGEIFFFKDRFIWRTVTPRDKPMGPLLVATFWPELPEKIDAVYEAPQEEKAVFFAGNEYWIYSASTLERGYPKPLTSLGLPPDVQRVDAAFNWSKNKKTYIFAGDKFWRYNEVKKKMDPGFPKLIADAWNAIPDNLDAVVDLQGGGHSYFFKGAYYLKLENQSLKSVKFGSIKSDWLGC", "experiment": "Dose Response validation of uHTS RPN11 inhibitor hits using a MMP-2 Fluorescence assay.", "format": "functional"}, "[12]": {"target": "Bifunctional protein GlmU (Mycobacterium tuberculosis, UniProt P9WMN3)", "sequence (P9WMN3 whole entry)": "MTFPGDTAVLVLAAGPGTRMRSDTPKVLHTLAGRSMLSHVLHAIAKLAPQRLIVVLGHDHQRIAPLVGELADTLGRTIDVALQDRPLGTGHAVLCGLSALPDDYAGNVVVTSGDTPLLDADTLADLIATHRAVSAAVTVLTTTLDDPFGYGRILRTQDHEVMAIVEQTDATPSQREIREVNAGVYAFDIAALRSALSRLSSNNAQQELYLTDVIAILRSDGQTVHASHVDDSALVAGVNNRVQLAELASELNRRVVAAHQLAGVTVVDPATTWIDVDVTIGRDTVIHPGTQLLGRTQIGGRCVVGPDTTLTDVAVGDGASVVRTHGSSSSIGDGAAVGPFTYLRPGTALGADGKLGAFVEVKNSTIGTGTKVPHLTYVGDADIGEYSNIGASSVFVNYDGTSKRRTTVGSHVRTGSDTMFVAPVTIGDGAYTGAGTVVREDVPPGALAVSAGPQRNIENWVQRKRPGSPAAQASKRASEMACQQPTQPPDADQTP", "experiment": "Inhibitors of Mycobacterial Glucosamine-1-phosphate acetyl transferase (GlmU). Secondary screen.", "parameters": "species or system Mycobacterium tuberculosis H37Rv"}, "[13]": {"target": "DNA (cytosine-5)-methyltransferase 1 (Homo sapiens, UniProt P26358)", "sequence (P26358 whole entry)": "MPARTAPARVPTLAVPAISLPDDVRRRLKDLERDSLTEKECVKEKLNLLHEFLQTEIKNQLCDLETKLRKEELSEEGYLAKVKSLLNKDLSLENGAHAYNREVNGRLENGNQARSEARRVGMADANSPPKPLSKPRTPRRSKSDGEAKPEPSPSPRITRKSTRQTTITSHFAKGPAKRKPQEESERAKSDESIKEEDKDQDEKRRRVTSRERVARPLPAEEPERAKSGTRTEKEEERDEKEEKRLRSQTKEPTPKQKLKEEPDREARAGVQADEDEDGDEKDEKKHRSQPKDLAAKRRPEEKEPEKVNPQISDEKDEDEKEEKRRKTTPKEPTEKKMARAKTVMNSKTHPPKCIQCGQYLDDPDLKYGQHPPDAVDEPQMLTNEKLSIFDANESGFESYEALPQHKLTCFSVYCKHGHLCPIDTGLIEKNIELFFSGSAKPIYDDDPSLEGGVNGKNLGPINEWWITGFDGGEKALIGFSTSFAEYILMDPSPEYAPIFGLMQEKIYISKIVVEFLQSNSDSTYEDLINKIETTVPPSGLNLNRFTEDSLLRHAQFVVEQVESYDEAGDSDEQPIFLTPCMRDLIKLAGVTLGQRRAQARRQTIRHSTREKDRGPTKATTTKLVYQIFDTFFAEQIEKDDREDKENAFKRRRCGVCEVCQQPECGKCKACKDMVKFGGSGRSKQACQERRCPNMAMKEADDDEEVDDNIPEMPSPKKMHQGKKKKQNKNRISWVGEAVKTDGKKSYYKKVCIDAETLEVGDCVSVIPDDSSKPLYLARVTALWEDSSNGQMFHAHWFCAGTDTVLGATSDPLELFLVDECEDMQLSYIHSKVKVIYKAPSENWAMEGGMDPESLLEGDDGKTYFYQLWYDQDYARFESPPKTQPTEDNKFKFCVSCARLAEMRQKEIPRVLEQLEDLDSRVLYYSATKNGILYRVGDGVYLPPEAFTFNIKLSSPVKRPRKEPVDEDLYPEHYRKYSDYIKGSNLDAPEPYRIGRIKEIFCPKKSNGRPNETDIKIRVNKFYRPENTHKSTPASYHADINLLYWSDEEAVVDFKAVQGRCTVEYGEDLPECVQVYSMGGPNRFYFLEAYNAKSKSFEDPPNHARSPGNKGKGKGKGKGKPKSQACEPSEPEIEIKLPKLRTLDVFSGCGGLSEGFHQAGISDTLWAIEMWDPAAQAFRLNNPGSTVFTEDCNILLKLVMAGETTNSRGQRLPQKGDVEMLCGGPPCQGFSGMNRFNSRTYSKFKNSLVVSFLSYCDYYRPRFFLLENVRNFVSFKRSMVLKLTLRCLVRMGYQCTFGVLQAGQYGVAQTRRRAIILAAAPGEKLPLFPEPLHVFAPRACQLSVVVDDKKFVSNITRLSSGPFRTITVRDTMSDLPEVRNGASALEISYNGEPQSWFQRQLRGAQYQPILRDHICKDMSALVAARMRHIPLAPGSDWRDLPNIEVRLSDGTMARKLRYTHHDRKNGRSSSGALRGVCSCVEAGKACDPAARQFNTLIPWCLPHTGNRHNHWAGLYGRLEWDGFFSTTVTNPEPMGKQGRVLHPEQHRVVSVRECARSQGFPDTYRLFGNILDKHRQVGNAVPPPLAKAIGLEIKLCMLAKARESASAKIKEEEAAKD", "experiment": "DNMT1 methyltransferase inhibitors, confirmation, biochemical, fluorescent molecular beacon (AID 602386)", "format": "functional"}, "[14]": {"target": "T3, Rac GTPase-activating protein 1 (Homo sapiens, UniProt Q9H0H5)", "T3 sequence (Q9H0H5 whole entry)": "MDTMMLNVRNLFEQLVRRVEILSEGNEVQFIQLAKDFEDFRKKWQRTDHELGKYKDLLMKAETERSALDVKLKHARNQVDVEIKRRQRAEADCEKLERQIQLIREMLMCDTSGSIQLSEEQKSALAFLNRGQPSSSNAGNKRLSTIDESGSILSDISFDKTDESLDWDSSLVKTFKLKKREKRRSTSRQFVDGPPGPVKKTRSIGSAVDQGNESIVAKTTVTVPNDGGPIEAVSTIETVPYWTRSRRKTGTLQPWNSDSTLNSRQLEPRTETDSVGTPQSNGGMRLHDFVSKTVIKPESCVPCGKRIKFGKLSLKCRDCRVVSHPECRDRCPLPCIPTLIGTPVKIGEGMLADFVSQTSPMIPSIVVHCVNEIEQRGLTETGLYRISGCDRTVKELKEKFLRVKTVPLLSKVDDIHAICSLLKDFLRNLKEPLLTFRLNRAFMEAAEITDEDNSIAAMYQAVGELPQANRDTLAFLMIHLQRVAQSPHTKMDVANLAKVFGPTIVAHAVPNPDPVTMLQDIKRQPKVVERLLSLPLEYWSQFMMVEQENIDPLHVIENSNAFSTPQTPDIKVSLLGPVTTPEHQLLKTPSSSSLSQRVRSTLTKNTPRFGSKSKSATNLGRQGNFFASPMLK", "experiment": "MgcRacGAP GTPase-activating activity inhibitors, confirmation, biochemical, ADP Hunter fluorescence, primary and confirmatory (AID 624330)", "format": "functional"}, "[15]": {"target": "T4, Histone-lysine N-methyltransferase NSD2 (Homo sapiens, UniProt O96028)", "T4 sequence (O96028 whole entry)": "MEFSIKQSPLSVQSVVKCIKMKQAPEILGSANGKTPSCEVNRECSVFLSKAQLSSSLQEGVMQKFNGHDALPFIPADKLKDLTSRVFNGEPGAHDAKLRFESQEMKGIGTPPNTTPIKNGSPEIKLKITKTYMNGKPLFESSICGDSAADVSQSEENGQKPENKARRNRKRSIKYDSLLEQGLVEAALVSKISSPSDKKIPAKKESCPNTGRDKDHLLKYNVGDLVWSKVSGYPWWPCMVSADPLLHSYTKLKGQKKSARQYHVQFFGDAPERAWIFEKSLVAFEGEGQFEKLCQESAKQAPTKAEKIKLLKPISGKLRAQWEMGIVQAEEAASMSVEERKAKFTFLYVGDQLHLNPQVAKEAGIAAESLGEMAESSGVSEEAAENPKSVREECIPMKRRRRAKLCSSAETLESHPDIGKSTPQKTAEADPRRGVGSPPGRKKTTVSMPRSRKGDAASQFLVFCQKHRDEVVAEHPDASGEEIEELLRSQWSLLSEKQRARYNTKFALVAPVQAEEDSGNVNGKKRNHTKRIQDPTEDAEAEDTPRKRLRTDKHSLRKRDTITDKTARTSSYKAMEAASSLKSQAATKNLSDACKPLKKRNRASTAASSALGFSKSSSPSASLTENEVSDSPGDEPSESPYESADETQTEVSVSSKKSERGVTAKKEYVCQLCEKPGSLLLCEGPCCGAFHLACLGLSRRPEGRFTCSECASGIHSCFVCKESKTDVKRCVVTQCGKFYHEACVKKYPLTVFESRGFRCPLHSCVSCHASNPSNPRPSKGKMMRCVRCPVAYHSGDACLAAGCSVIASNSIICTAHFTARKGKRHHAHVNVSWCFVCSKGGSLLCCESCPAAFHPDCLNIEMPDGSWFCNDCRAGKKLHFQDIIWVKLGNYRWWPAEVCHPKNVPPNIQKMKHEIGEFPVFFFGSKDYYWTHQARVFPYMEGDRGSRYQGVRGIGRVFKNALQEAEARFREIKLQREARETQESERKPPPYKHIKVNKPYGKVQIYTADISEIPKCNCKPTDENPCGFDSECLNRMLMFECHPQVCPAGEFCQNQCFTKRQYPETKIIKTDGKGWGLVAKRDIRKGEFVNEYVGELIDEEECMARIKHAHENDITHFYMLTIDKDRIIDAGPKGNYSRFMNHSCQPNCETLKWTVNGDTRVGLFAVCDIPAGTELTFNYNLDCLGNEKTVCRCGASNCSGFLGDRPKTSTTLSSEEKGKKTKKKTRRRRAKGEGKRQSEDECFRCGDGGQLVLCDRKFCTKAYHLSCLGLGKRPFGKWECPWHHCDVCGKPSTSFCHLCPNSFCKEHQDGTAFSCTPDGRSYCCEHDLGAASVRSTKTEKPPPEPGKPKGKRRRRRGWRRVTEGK", "format": "biochemical"}},
  "note": "The source made the active and inactive calls.",
  "data": [
    {"smiles": "CCOC(=O)C(/C=N/c1cc(C)nn1-c1ccccc1)=C(/O)OCC", "values": [
      {"measurement": "IC50", "setting": "[1]", "value": "6.37 µM (active)"}
    ]},
    {"smiles": "CCCCCCCCNc1ncnc2ccccc12", "values": [
      {"measurement": "IC50", "setting": "Jurkat", "value": "> 80 µM (inactive)"},
      {"measurement": "CC50", "setting": "[2]", "value": "> 40 µM (active)"},
      {"measurement": "IC50", "setting": "[3]", "value": "1.23 µM (active)"},
      {"measurement": "AC50", "setting": "INS1", "value": "0.232 µM (active)"},
      {"measurement": "EC50", "setting": "[4]", "value": "3.26 µM (active)"},
      {"measurement": "IC50", "setting": "Protein skinhead-1", "value": "33 µM (active)"},
      {"measurement": "IC50", "setting": "[5]", "value": "> 80 µM (inactive)"},
      {"measurement": "EC50", "setting": "[6]", "value": "> 160 µM (inactive)"}
    ]},
    {"smiles": "Cc1nc2ccc(NC(=O)N(C(C)C)C(C)C)cc2s1", "values": [
      {"measurement": "IC50", "setting": "[7]", "value": "> 100 µM (active)"}
    ]},
    {"smiles": "O=c1oc(-c2ccco2)nc2ccccc12", "values": [
      {"measurement": "IC50", "setting": "[8]", "value": "> 50 µM (not active)"}
    ]},
    {"smiles": "CCS(=O)(=O)C1=NN2C(=N)/C(=C\\c3ccc(SCc4ccco4)o3)C(=O)N=C2S1", "values": [
      {"measurement": "IC50", "setting": "[9]", "value": "3.96 µM (active)"},
      {"measurement": "IC50", "setting": "Aminopeptidase N", "value": "24.2 µM (active)"},
      {"measurement": "IC50", "setting": "[10]", "value": "12 µM (active)"},
      {"measurement": "IC50", "setting": "Prothrombin", "value": "28.5 µM (active)"},
      {"measurement": "IC50", "setting": "[11]", "value": "4.49 µM (active)"},
      {"measurement": "IC50", "setting": "[12]", "value": "49.4 µM (active)"},
      {"measurement": "IC50", "setting": "[13]", "value": "5.71 µM (active)"},
      {"measurement": "IC50", "setting": "[14]", "value": "132 µM (active)"},
      {"measurement": "AC50", "setting": "[15]", "value": "7.62 µM (active)"}
    ]}
  ]
}
